# Measured values published in patent US20230346772A1, “COMBINATION TREATMENTS FOR WALDENSTROM'S MACROGLOBULINEMIA” (X4 Pharmaceuticals, Inc., priority 2019, published 2023).
# Read-outs that look alike come from different tables or passages of the source.
# How the values were obtained:
# Solubility of X4P-001 = assay type: physicochemical
# [1] = Terminal half-life of X4P-001; conditions: in vivo
# [2] = Phase 1/2 study in renal cell carcinoma, dose-limiting toxicities; assay type: in vivo, human
# Description: Doses of mavorixafor up to 600 mg daily have been tested in other clinical trials. During a Phase 1/2 study in renal cell carcinoma, a 3-patient cohort received monotherapy with 600 mg mavorixafor with 2 DLTs reported. On review, one of these (hyperglycemia) occurred in a patient with undiagnosed diabetes mellitus and the other (acute kidney injury [AKI]) occurred in a patient with pre-existing renal dysfunction and other complicating factors. Six patients received the 600 mg mavorixafor dose together with axitinib. […] Patients with a high hemoglobin A1c (HbA1c) level or with renal dysfunction are excluded from this study for safety reasons.
# neutrophil = test: Pharmacodynamic response of neutrophil changes (ANC); parameters: species or system human; conditions: in vivo
# Description: This characteristic of mavorixafor, allows for intrapatient patient dose escalation and since the steady-state ANC response is achieved rapidly as doses are escalated, the 28-day treatment duration cycle is intended to ensure that steady-state changes in ANC counts are achieved at each dose level, thereby avoiding any potential carry-over effects of previous doses. In addition, any DLT events are attributed to the current dose regardless of duration, making it unlikely that an unsafe dose is selected based on the algorithm.
# CXCR4 = CXCR4 (Homo sapiens, UniProt P61073)
# Chain of CXCR4 (P61073 whole entry): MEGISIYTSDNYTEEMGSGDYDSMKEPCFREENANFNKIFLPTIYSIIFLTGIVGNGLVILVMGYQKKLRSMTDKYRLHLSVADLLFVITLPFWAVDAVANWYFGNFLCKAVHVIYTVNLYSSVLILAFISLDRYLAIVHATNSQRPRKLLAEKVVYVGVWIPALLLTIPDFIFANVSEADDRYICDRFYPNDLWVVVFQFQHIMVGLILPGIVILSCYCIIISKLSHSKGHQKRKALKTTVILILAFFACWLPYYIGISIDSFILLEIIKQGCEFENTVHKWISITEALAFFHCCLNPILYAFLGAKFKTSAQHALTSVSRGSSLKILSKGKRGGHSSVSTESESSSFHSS
# Description: Dose selection for the planned Phase 1b study is based on available safety data and PD of CXCR4 inhibition. […] An intrapatient dose escalation scheme is used in this study: patients will have a dose escalation in 200-mg increments to a maximum dose of 600 mg QD with the objective of achieving maximum white blood cell (WBC) mobilization.
# [3] = system: Waldenstrom's Macroglobulinemia; conditions: previously treated WM patients, cited from earlier work
# [4] = system: Waldenstrom's Macroglobulinemia; conditions: treatment-naive WM patients, cited from earlier work
# [5] = system: Waldenstrom's Macroglobulinemia; conditions: cited from earlier work
# [6] = Food effect on absorption
# WBC count = conditions: similar across neutrophils, monocytes, lymphocytes including B cells; cited from earlier work
# CD19 B cells = conditions: patients with WHIM who had mutations in CXCR4; cited from earlier work
smiles,measurement,setting,value
NCCCCN(Cc1nc2ccccc2[nH]1)[C@H]1CCCc2cccnc21 [X4P-001],solubility,"Solubility of X4P-001; aqueous buffer, pH range 3.0 to 8.0, read-out: Solubility",> 100 mg/mL
same,solubility,Solubility of X4P-001; in water,only slightly soluble
same,half-life,[1],12 to 24 h
same,DLTs reported,"[2]; 600 mg monotherapy, 3-patient cohort",2
same,patients reporting DLTs,"[2]; 600 mg together with axitinib, six patients",Two of these patients reported DLTs
same,pharmacodynamic response of neutrophil changes,neutrophil,"rapid, occurring within hours to days"
same,pharmacological activity of the dose,"CXCR4; 200 mg starting dose, prior clinical trials",pharmacologically active
same,tolerability of the dose,"CXCR4; human, in vivo",well-tolerated
"C=CC(=O)N1CCC[C@@H](n2nc(-c3ccc(Oc4ccccc4)cc3)c3c(N)ncnc32)C1 [ibrutinib, 1-[(3R)-3-[4-amino-3-(4-phenoxyphenyl)-1Hpyrazolo[3,4-d]pyrimidin-1-yl]-1-piperidinyl]-2-propen-1-one]",MR (major response),[3]; All Patients,78%
same,VGPR (very good partial response),[3]; All Patients,29%
same,MR (major response),[3]; MYD88^L265P CXCR4^WHIM,67%
same,VGPR (very good partial response),[3]; MYD88^L265P CXCR4^WHIM,10%
same,MR (major response),[3]; MYD88^L265P CXCR4^WT,97%
same,VGPR (very good partial response),[3]; MYD88^L265P CXCR4^WT,44%
same,MR (major response),[4]; All Patients,83%
same,VGPR (very good partial response),[4]; All Patients,20%
same,MR (major response),[4]; MYD88^L265P CXCR4^WHIM,71%
same,VGPR (very good partial response),[4]; MYD88^L265P CXCR4^WHIM,7%
same,MR (major response),[4]; MYD88^L265P CXCR4^WT,94%
same,VGPR (very good partial response),[4]; MYD88^L265P CXCR4^WT,31%
same,VGPR,[5]; patients with the MYD88^L265P CXCR4^WT mutations,44.4%
same,VGPR,[5]; patients with the double mutations MYD88^L265P CXCR4^WHIM,9.5%
same,absorption when taken with food,[6],increased
c1cc(CN2CCCNCCNCCCNCC2)ccc1CN1CCCNCCNCCCNCC1 [plerixafor],maximum fold-increase in WBCs over baseline,WBC count,3 fold
same,fold increase in CD19 B cells,CD19 B cells,greater than 40 fold
